Earlier results, collected in publication PMC2924185 (Journal of the American Chemical Society, 2010).

Tested on: panel of human protein kinases
Conditions: for selectivity score: judged by similar criteria

Structure (SMILES) | potency among Src-family kinases (in words) | selectivity score
CC(C)(C)n1nc(-c2ccc(Cl)cc2)c2c(N)ncnc21 [PP2] | significantly more potent against Src-family members Fyn, Hck, and Lyn than against Src itself | 
CN[C@@H]1C[C@H]2O[C@@](C)([C@@H]1OC)n1c3ccccc3c3c4c(c5c6ccccc6n2c5c31)C(=O)NC4 [staurosporine] |  | 0.50
CNC(=O)c1cc(Oc2ccc(NC(=O)Nc3ccc(Cl)c(C(F)(F)F)c3)cc2)ccn1 [sorafenib] |  | 0.10
Cc1ccc(-c2nn(C(C)(C)C)c3ncnc(N)c23)cc1 [PP1] | significantly more potent against Src-family members Fyn, Hck, and Lyn than against Src itself | 
